Laboratory results taken from patent US20260285850A1, “SUBSTITUTED OXAZOLIDINONES AND IMIDAZOLINONES AS HERBICIDES” (FMC CORPORATION, priority 2023, published 2026).

What was measured:
Assay type in all cases: in vivo
[1] = system: barnyardgrass (Echinochloa crus-galli); test: Test A preemergence soil spray, visual injury rating 0-100; settings: 10 days
Procedure, shortened: (§1)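 Seeds sown in loam-sand blend got a preemergence directed soil spray, or emerged plants (2-10 cm, one- to two-leaf) got a postemergence spray, of compound in non-phytotoxic solvent with surfactant. After 10 days in greenhouse, injury rated visually versus untreated controls on a 0 (no effect) to 100 (complete control) scale.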

[2] = system: blackgrass (Alopecurus myosuroides); test: as above; settings: 10 days
Procedure, shortened: as §1

corn (Zea mays) [3] = test: as above; settings: 16 g ai/ha, 0 to 100 scale, 10 days
Procedure, shortened: as §1

[4] = system: green foxtail (Setaria viridis); test: as above; settings: 10 days
Procedure, shortened: as §1

kochia (Bassia scoparia) [5] = test: as above; settings: 10 days
Procedure, shortened: as §1

[6] = system: oat, wild (wild oat, Avena fatua); test: as above; settings: 10 days
Procedure, shortened: as §1

[7] = system: palmer (palmer amaranth, palmer pigweed, Amaranthus palmeri); test: as above; settings: 62 g ai/ha, 10 days, 0 = no effect, 100 = complete control
Procedure, shortened: as §1

[8] = system: ragweed (common ragweed, Ambrosia artemisiifolia); test: as above; settings: 10 days
Procedure, shortened: as §1

[9] = system: ryegrass, Italian (italian ryegrass, Lolium multiflorum); test: as above; settings: 10 days
Procedure, shortened: as §1

soybean (Glycine max) [10] = test: as above; settings: 10 days
Procedure, shortened: as §1

[11] = system: wheat (Triticum aestivum); test: as above; settings: 10 days
Procedure, shortened: as §1

[12] = system: barnyardgrass (Echinochloa crus-galli); test: Test A postemergence application, visual injury rating 0-100
Procedure, shortened: as §1

[13] = system: blackgrass (Alopecurus myosuroides); test: as above
Procedure, shortened: as §1

corn (Zea mays) [14] = test: as above
Procedure, shortened: as §1

[15] = system: galium (catchweed bedstraw, Galium aparine); test: as above
Procedure, shortened: as §1

[16] = system: green foxtail (Setaria viridis); test: as above
Procedure, shortened: as §1

[17] = system: horseweed (Erigeron canadensis); test: as above
Procedure, shortened: as §1

kochia (Bassia scoparia) [18] = test: as above
Procedure, shortened: as §1

[19] = system: oat, wild (wild oat, Avena fatua); test: as above
Procedure, shortened: as §1

[20] = system: palmer (palmer amaranth, palmer pigweed, Amaranthus palmeri); test: as above
Procedure, shortened: as §1

[21] = system: ragweed (common ragweed, Ambrosia artemisiifolia); test: as above
Procedure, shortened: as §1

[22] = system: ryegrass, Italian (italian ryegrass, Lolium multiflorum); test: as above
Procedure, shortened: as §1

soybean (Glycine max) [23] = test: as above
Procedure, shortened: as §1

[24] = system: wheat (Triticum aestivum); test: as above
Procedure, shortened: as §1

[25] = system: barnyardgrass (Echinochloa crusgalli); test: Test B flooded paddy test, visual plant response rating 0-100; settings: 250 g ai/ha, Flood, applied to paddy water, evaluated after 13 days
Procedure, shortened: (§2)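 Visual evaluation after 13 days. Water-applied treatment, 3 cm flood depth held constant, plants at 2-leaf stage at treatment.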

[26] = system: ducksalad (Heteranthera limosa); test: as above; settings: 250 g ai/ha, Flood, applied to paddy water, evaluated after 13 days
Procedure, shortened: as §2

rice (Oryza sativa) = test: as above; settings: 250 g ai/ha, Flood, applied to paddy water, evaluated after 13 days
Procedure, shortened: as §2

[27] = system: sedge, umbrella (small-flower umbrella sedge, Cyperus difformis); test: as above; settings: 250 g ai/ha, Flood, applied to paddy water, evaluated after 13 days
Procedure, shortened: as §2

[28] = 62 g ai/ha, 0 = no effect, 100 = complete control
[29] = 62 g ai/ha, postemergence, 10 days, 0 = no effect, 100 = complete control
[30] = Postemergence, 16 g ai/ha, greenhouse 10 days, 0 no effect, 100 complete control

Compound: CCOC(=O)C1=CCC(NC(=O)C2(C)CN(c3cc(F)cc(Cl)c3)C(=O)O2)C1 (centres unmarked) [Compound 133]
- Barnyardgrass plant response rating ([1]; 16 g ai/ha, 0 to 100 scale): 0
- Barnyardgrass plant response rating (0-100) [1, 28]: 80
- Blackgrass plant response rating ([2]; 16 g ai/ha, 0 to 100 scale): 0
- Blackgrass plant response rating (0-100) [2, 28]: 20
- Corn plant response rating (corn (Zea mays) [3]): 0
- Foxtail, Green plant response rating ([4]; 16 g ai/ha, 0 to 100 scale): 0
- Foxtail, Green plant response rating (0-100) [4, 28]: 90
- Kochia plant response rating (kochia (Bassia scoparia) [5]; 16 g ai/ha, 0 to 100 scale): 0
- Kochia plant response rating (0-100) (kochia (Bassia scoparia) [5]; [28]): 20
- Oat, Wild plant response rating ([6]; 16 g ai/ha, 0 to 100 scale): 0
- Oat, Wild plant response rating (0-100) [6, 28]: 0
- Pigweed, Palmer plant response rating (0-100) [7]: 90
- Ragweed plant response rating ([8]; 16 g ai/ha, 0 to 100 scale): 0
- Ragweed plant response rating (0-100) [8, 28]: 0
- Ryegrass, Italian plant response rating ([9]; 16 g ai/ha, 0 to 100 scale): 10
- Ryegrass, Italian plant response rating (0-100) [9, 28]: 80
- Soybean plant response rating (soybean (Glycine max) [10]; 16 g ai/ha, 0 to 100 scale): 0
- Soybean plant response rating (0-100) (soybean (Glycine max) [10]; [28]): 0
- Wheat plant response rating ([11]; 16 g ai/ha, 0 to 100 scale): 0
- Wheat plant response rating (0-100) [11, 28]: 90
- Barnyardgrass plant response rating (0-100) [12, 29]: 100
- Barnyardgrass plant response rating (0 to 100 scale) [12, 30]: 100
- Blackgrass plant response rating (0-100) [13, 29]: 90
- Blackgrass plant response rating (0 to 100 scale) [13, 30]: 70
- Corn plant response rating (0-100) (corn (Zea mays) [14]; [29]): 100
- Corn plant response rating (0 to 100 scale) (corn (Zea mays) [14]; [30]): 100
- Galium plant response rating (0-100) [15, 29]: 70
- Galium plant response rating (0 to 100 scale) [15, 30]: 60
- Foxtail, Green plant response rating (0-100) [16, 29]: 90
- Foxtail, Green plant response rating (0 to 100 scale) [16, 30]: 90
- Horseweed plant response rating (0-100) [17, 29]: 80
- Horseweed plant response rating (0 to 100 scale) [17, 30]: 0
- Kochia plant response rating (0-100) (kochia (Bassia scoparia) [18]; [29]): 90
- Kochia plant response rating (0 to 100 scale) (kochia (Bassia scoparia) [18]; [30]): 80
- Oat, Wild plant response rating (0-100) [19, 29]: 70
- Oat, Wild plant response rating (0 to 100 scale) [19, 30]: 40
- Pigweed, Palmer plant response rating (0-100) [20, 29]: 90
- Pigweed, Palmer plant response rating (0 to 100 scale) [20, 30]: 90
- Ragweed plant response rating (0-100) [21, 29]: 70
- Ragweed plant response rating (0 to 100 scale) [21, 30]: 30
- Ryegrass, Italian plant response rating (0-100) [22, 29]: 90
- Ryegrass, Italian plant response rating (0 to 100 scale) [22, 30]: 60
- Soybean plant response rating (0-100) (soybean (Glycine max) [23]; [29]): 70
- Soybean plant response rating (0 to 100 scale) (soybean (Glycine max) [23]; [30]): 60
- Wheat plant response rating (0-100) [24, 29]: 90
- Wheat plant response rating (0 to 100 scale) [24, 30]: 80
- Plant response rating, Barnyardgrass (0 to 100 scale, 0 is no effect and 100 is complete control) [25]: 95
- Plant response rating, Ducksalad (0 to 100 scale, 0 is no effect and 100 is complete control) [26]: 85
- Plant response rating, Rice (0 to 100 scale, 0 is no effect and 100 is complete control) (rice (Oryza sativa)): 85
- Plant response rating, Sedge, Umbrella (0 to 100 scale, 0 is no effect and 100 is complete control) [27]: 98
